Measurements as given in ChEMBL document CHEMBL1201862, “PubChem BioAssay data set” (2004).
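Grown in 96-well plates, cells were treated for 48 hours with each compound at five concentrations. Insufficient inhibition: endpoint recorded as highest concentration tested. At the GI50, growth is halved.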 Activity calls are given as the source filed them. Cut-off read from the data, not from the text of the source: active = GI50 up to about 1.1 µM and inactive = higher.

How the values were obtained:
Test in all cases: inhibition of tumour cell growth, NCI panel, 48 h
COLO 205 = test system: COLO 205
SK-MEL-28 = test system: SK-MEL-28
MDA-MB-231 = test system: MDA-MB-231
MCF7 = test system: MCF7
HOP-62 = test system: HOP-62
Malme-3M = test system: Malme-3M
U-251 = test system: U-251
T47D = test system: T47D
SF-539 = test system: SF-539
SNB-75 = test system: SNB-75
RXF 393 = test system: RXF 393
OVCAR-5 = test system: OVCAR-5
SK-MEL-5 = test system: SK-MEL-5
LOX IMVI = test system: LOX IMVI
DU-145 = test system: DU-145
SF-295 = test system: SF-295
A498 = test system: A498
SF-268 = test system: SF-268
HCT-15 = test system: HCT-15
IGROV-1 = test system: IGROV-1
HL-60 = test system: HL-60
K562 = test system: K562
CAKI-1 = test system: CAKI-1
NCI-H23 = test system: NCI-H23
BT-549 = test system: BT-549
OVCAR-4 = test system: OVCAR-4
MDA-MB-435 = test system: MDA-MB-435
UACC-257 = test system: UACC-257
SN12C = test system: SN12C
MDA-N = test system: MDA-N
SW-620 = test system: SW-620
786-0 = test system: 786-0
OVCAR-8 = test system: OVCAR-8
A549 = test system: A549
SR = test system: SR
HOP-92 = test system: HOP-92
ACHN = test system: ACHN
RPMI-8226 = test system: RPMI-8226
Hs-578T = test system: Hs-578T
NCI/ADR-RES = test system: NCI/ADR-RES
HCC 2998 = test system: HCC 2998
EKVX = test system: EKVX
HT-29 = test system: HT-29
M14 = test system: M14
UACC-62 = test system: UACC-62
SK-MEL-2 = test system: SK-MEL-2
SNB-19 = test system: SNB-19
KM12 = test system: KM12
HCT-116 = test system: HCT-116
PC-3 = test system: PC-3
TK-10 = test system: TK-10
OVCAR-3 = test system: OVCAR-3
NCI-H522 = test system: NCI-H522
UO-31 = test system: UO-31
CCRF-CEM = test system: CCRF-CEM
MOLT-4 = test system: MOLT-4
NCI-H460 = test system: NCI-H460
NCI-H226 = test system: NCI-H226

CC1=NN(C(=O)CC(=O)Nc2ccc(C)cc2)C(=O)C1/N=N/c1ccc(C(=O)O)cc1 (stereo unspecified)
GI50 (COLO 205): > 100 µM (inactive) | GI50 (SK-MEL-28): > 100 µM (inactive) | GI50 (MDA-MB-231): > 100 µM (inactive) | GI50 (MCF7): > 100 µM (inactive) | GI50 (HOP-62): > 100 µM (inactive) | GI50 (Malme-3M): > 100 µM (inactive) | GI50 (U-251): > 100 µM (inactive) | GI50 (T47D): > 100 µM (inactive) | GI50 (SF-539): > 100 µM (inactive) | GI50 (SNB-75): > 100 µM (inactive) | GI50 (RXF 393): > 100 µM (inactive) | GI50 (OVCAR-5): > 100 µM (inactive) | GI50 (SK-MEL-5): > 100 µM (inactive) | GI50 (LOX IMVI): 69.3 µM (inactive) | GI50 (DU-145): > 100 µM (inactive) | GI50 (SF-295): > 100 µM (inactive) | GI50 (A498): > 100 µM (inactive) | GI50 (SF-268): > 100 µM (inactive) | GI50 (HCT-15): > 100 µM | GI50 (IGROV-1): > 100 µM (inactive) | GI50 (HL-60): > 100 µM (inactive) | GI50 (K562): > 100 µM (inactive) | GI50 (CAKI-1): > 100 µM (inactive) | GI50 (NCI-H23): > 100 µM (inactive) | GI50 (BT-549): > 100 µM (inactive) | GI50 (OVCAR-4): > 100 µM (inactive) | GI50 (MDA-MB-435): > 100 µM (inactive) | GI50 (UACC-257): > 100 µM (inactive) | GI50 (SN12C): > 100 µM (inactive) | GI50 (MDA-N): > 100 µM (inactive) | GI50 (SW-620): > 100 µM (inactive) | GI50 (786-0): > 100 µM (inactive) | GI50 (OVCAR-8): > 100 µM (inactive) | GI50 (A549): > 100 µM (inactive) | GI50 (SR): 78.5 µM (inactive) | GI50 (HOP-92): > 100 µM (inactive) | GI50 (ACHN): > 100 µM (inactive) | GI50 (RPMI-8226): > 100 µM (inactive) | GI50 (Hs-578T): 85.7 µM (inactive) | GI50 (NCI/ADR-RES): > 100 µM (inactive) | GI50 (HCC 2998): > 100 µM (inactive) | GI50 (EKVX): > 100 µM (inactive) | GI50 (HT-29): > 100 µM (inactive) | GI50 (M14): > 100 µM (inactive) | GI50 (UACC-62): > 100 µM (inactive) | GI50 (SK-MEL-2): > 100 µM (inactive) | GI50 (SNB-19): > 100 µM (inactive) | GI50 (KM12): > 100 µM (inactive) | GI50 (HCT-116): > 100 µM (inactive) | GI50 (PC-3): > 100 µM (inactive) | GI50 (TK-10): > 100 µM (inactive) | GI50 (OVCAR-3): > 100 µM (inactive) | GI50 (NCI-H522): > 100 µM (inactive) | GI50 (UO-31): 55.8 µM (inactive) | GI50 (CCRF-CEM): > 100 µM (inactive)

Nc1nc(-c2ccccc2)nc2oc(-c3cccs3)nc12
GI50 (COLO 205): > 100 µM (inactive) | GI50 (SK-MEL-28): > 100 µM (inactive) | GI50 (MDA-MB-231): > 100 µM (inactive) | GI50 (MCF7): > 100 µM (inactive) | GI50 (HOP-62): > 100 µM (inactive) | GI50 (U-251): > 100 µM (inactive) | GI50 (T47D): > 100 µM (inactive) | GI50 (SF-539): > 100 µM (inactive) | GI50 (MOLT-4): > 100 µM (inactive) | GI50 (SNB-75): > 100 µM (inactive) | GI50 (RXF 393): > 100 µM (inactive) | GI50 (OVCAR-5): > 100 µM (inactive) | GI50 (SK-MEL-5): > 100 µM (inactive) | GI50 (LOX IMVI): > 100 µM (inactive) | GI50 (NCI-H460): > 100 µM (inactive) | GI50 (DU-145): > 100 µM (inactive) | GI50 (SF-295): > 100 µM (inactive) | GI50 (A498): > 100 µM (inactive) | GI50 (SF-268): > 100 µM (inactive) | GI50 (HCT-15): > 100 µM | GI50 (IGROV-1): > 100 µM (inactive) | GI50 (HL-60): > 100 µM (inactive) | GI50 (K562): > 100 µM (inactive) | GI50 (CAKI-1): > 10 µM (inactive) | GI50 (NCI-H23): > 100 µM (inactive) | GI50 (BT-549): > 100 µM (inactive) | GI50 (MDA-MB-435): > 100 µM (inactive) | GI50 (UACC-257): > 100 µM (inactive) | GI50 (SN12C): > 100 µM (inactive) | GI50 (MDA-N): > 10 µM (inactive) | GI50 (SW-620): > 100 µM (inactive) | GI50 (786-0): > 100 µM (inactive) | GI50 (OVCAR-8): > 100 µM (inactive) | GI50 (A549): > 100 µM (inactive) | GI50 (SR): > 100 µM (inactive) | GI50 (HOP-92): > 100 µM (inactive) | GI50 (ACHN): > 100 µM (inactive) | GI50 (RPMI-8226): > 100 µM (inactive) | GI50 (Hs-578T): > 100 µM (inactive) | GI50 (NCI/ADR-RES): > 100 µM (inactive) | GI50 (HCC 2998): > 100 µM (inactive) | GI50 (EKVX): > 100 µM (inactive) | GI50 (HT-29): > 100 µM (inactive) | GI50 (NCI-H226): > 100 µM (inactive) | GI50 (M14): > 100 µM (inactive) | GI50 (UACC-62): > 100 µM (inactive) | GI50 (SK-MEL-2): > 100 µM (inactive) | GI50 (SNB-19): > 100 µM (inactive) | GI50 (KM12): > 100 µM (inactive) | GI50 (HCT-116): > 100 µM (inactive) | GI50 (PC-3): > 100 µM (inactive) | GI50 (TK-10): > 100 µM (inactive) | GI50 (OVCAR-3): > 100 µM (inactive) | GI50 (NCI-H522): > 100 µM (inactive) | GI50 (UO-31): > 100 µM (inactive) | GI50 (CCRF-CEM): > 100 µM (inactive)
